Test results: patent publication US7781459B2, “Carboxyalkoxy-substituted acyl-carboxyphenylurea derivatives and their use as medicaments” (Sanofi-Aventis Deutschland GmbH, priority 2002, dated 2010)
pIC50: −log10 of the molar value. Like-named read-outs stand apart in the source and are kept apart here.

System: glycogenolysis in primary cultures of rat hepatocytes
Test: Inhibitory potency on glycogenolysis in primary cultures of rat hepatocytes (glucagon-induced glucose production rate)
Format: cell-based
Conditions: Hepatocyte
Method: Analysis of Test Substances for their Inhibitory Potency on Glycogenolysis in Primary Cultures of Rat Hepatocytes
Hepatocytes were isolated from the livers of fed rats (Sprague-Dawley or Wistar, bodyweight 220-240 g) by means of a standard 2-stage perfusion first with calcium-free buffer solution followed by perfusion with collagenase-containing solution to break up the tissue assembly (Seglen et al, 1979). The cells were incubated in an incubator with 90% humidity at 37° C. and an atmosphere with 5% CO2 in air. The cultivation normally took place with Williams' medium E supplemented with 20 mM glucose, 0.1 mM fructose, 1 μM dexamethasone and 100 nM insulin. Glycogenolysis was induced by changing the culture medium to prewarmed carbogen-gassed Krebs-Henseleit bicarbonate Hepes (20 mM) buffer, pH 7.4, supplemented with 100 nM glucagon (time 0 min). The test substances were normally added at time 0 min as 100× stock solution in DMSO. The final DMSO concentration was not higher than 1% (v/v). The amount of glucose in the culture supernatant was determined after addition of glucagon in the presence and absence of test substance by removing small aliquots of the cell culture supernatant at times 0, 30, 60 and 90 min. The glucose concentration (mM) was determined by enzymatic methods in a biochemical analysis laboratory of Aventis Pharma Deutschland. The glucose production rate was found by linear regression of the glucose concentration at times 30, 60 and 90 min using the following formula:
Glucose production rate (mM/h)=mM glucose (90 min)−mM glucose (30 min).
The percent inhibition was calculated using the following formula: […]
IC50 values (IC50: the concentration (μM) of test substance which brings about a reduction of 50% in the glucose production rate) was estimated by standard curve fitting methods using the percent inhibitions obtained at relevant concentrations of test substance.

[1] = glycogenolysis induced with 100 nM glucagon, 50% reduction in glucose production rate, read-out: IC50 on hep.
[2] = comparison examples from WO 01/94300, glucagon-induced glycogenolysis, read-out: IC50 nm hep.

Row | SMILES | pIC50 [1] | pIC50 [2]
1 | O=C(O)COc1ccccc1NC(=O)NC(=O)c1ccc(F)cc1Cl [Example 1, 2-[3-(2-Chloro-4-fluorobenzoyl)ureido]phenoxyacetic acid] | 5.94 | 
2 | O=C(O)COc1cc(C(=O)O)ccc1NC(=O)NC(=O)c1ccc(F)cc1Cl [Example 2, 3-Carboxymethoxy-4-[3-(2-chloro-4-fluorobenzoyl)ureido]benzoic acid] | 5.84 | 
3 | COC(=O)CCCOc1cc(C(=O)O)ccc1NC(=O)NC(=O)c1cc(F)c(F)cc1Cl [Example 10, 4-[3-(2-Chloro-4,5-difluorobenzoyl)ureido]-3-(3-methoxycarbonylpropoxy)benzoic acid] | 6.97 | 
4 | CC(=O)CCCCCOc1c(Cl)cc(NC(=O)NC(=O)c2ccc(F)cc2Cl)cc1Cl [Example No. 105 from WO 01/94300, reference compound] |  | 4.76
5 | CC(=O)CCCCCOc1ccc(NC(=O)NC(=O)c2ccc(Cl)cc2Cl)c(F)c1 [Example No. 116 from WO 01/94300, reference compound] |  | 4.87
